From the supplement of paper PMC13380429

Assays:
Conditions in all cases: 72 h
Caco-2 [1] = test: relative viability EC50 (midpoint between 100% and the lowest measured viability); higher = less toxic
HepG2 [2] = test: as above
Calu-3 [3] = test: as above
Caco-2 [4] = test: cell viability relative to DMSO; higher = less toxic
HepG2 [5] = test: as above
Calu-3 [6] = test: as above
Caco-2 [7] = test: drug sensitivity score (DSS) for viability; higher = more toxic; extreme values may be limits of the assay
HepG2 [8] = test: as above
Calu-3 [9] = test: as above
U2OS [10] = test: relative viability EC50 (midpoint between 100% and the lowest measured viability); higher = less toxic
Vero E6 [11] = test: cell viability relative to DMSO; higher = less toxic
U2OS [12] = test: as above
Vero E6 [13] = test: drug sensitivity score (DSS) for viability; higher = more toxic; extreme values may be limits of the assay
U2OS [14] = test: as above

SMILES	relative viability EC50 (Caco-2 [1])	relative viability EC50 (HepG2 [2])	relative viability EC50 (Calu-3 [3])	cell viability (Caco-2 [4]; 1 nM)	cell viability (Caco-2 [4]; 10 nM)	cell viability (Caco-2 [4]; 100 nM)	cell viability (Caco-2 [4]; 1000 nM)	cell viability (Caco-2 [4]; 10000 nM)	cell viability (HepG2 [5]; 1 nM)	cell viability (HepG2 [5]; 10 nM)	cell viability (HepG2 [5]; 100 nM)	cell viability (HepG2 [5]; 1000 nM)	cell viability (HepG2 [5]; 10000 nM)	cell viability (Calu-3 [6]; 1 nM)	cell viability (Calu-3 [6]; 10 nM)	cell viability (Calu-3 [6]; 100 nM)	cell viability (Calu-3 [6]; 1000 nM)	cell viability (Calu-3 [6]; 10000 nM)	drug sensitivity score (Caco-2 [7])	drug sensitivity score (HepG2 [8])	drug sensitivity score (Calu-3 [9])	relative viability EC50 (U2OS [10])	cell viability (Vero E6 [11]; 1 nM)	cell viability (Vero E6 [11]; 10 nM)	cell viability (Vero E6 [11]; 100 nM)	cell viability (Vero E6 [11]; 1000 nM)	cell viability (Vero E6 [11]; 10000 nM)	cell viability (U2OS [12]; 1 nM)	cell viability (U2OS [12]; 10 nM)	cell viability (U2OS [12]; 100 nM)	cell viability (U2OS [12]; 1000 nM)	cell viability (U2OS [12]; 10000 nM)	drug sensitivity score (Vero E6 [13])	drug sensitivity score (U2OS [14])
CCN(CC)S(=O)(=O)c1ccc(C(=O)O)cc1 [etebenecid]	> 10 µM	> 10 µM	> 10 µM	99.7%	110%	107%	92.5%	108%	109%	110%	98.4%	112%	101%	110%	93.9%	106%	95.2%	111%	0	0	0	–	–	–	–	–	–	–	–	–	–	–	–	–
FC(F)(F)Oc1ccc2nc(-c3ccc(OCCOCCOc4ccc(-c5nc6ccc(OC(F)(F)F)cc6[nH]5)nc4)cn3)[nH]c2c1 [AI-10-49]	–	1.37 µM	> 10 µM	95.2%	95.4%	90.9%	82%	56.7%	94.7%	93.6%	103%	74.6%	18.7%	109%	95.7%	98.2%	98.3%	93.3%	4.2	8.2	0	> 10 µM	102%	97%	93.3%	72.8%	56.2%	98.5%	98.6%	101%	90.5%	80.7%	5.6	1.5
Cc1ccccc1C(=O)Nc1ccc(C(=O)N2CCCC(N(C)C)c3ccccc32)cc1 (stereo not given) [mozavaptan]	–	3.1 µM	–	97%	99.8%	88.8%	76.6%	70.2%	98.2%	99.5%	93.3%	99.5%	44.3%	94.9%	109%	95.6%	105%	64.9%	4.7	3.1	1.4	2.87 µM	100%	103%	98.3%	98.4%	51.6%	98.1%	102%	94.5%	98%	48.8%	2.7	3
O=C1c2ccccc2CCC1CNCCc1ccc(O)cc1 (stereo not given) [BE-2254]	> 10 µM	3.45 µM	> 10 µM	104%	100%	99.5%	104%	98%	114%	96%	96.7%	103%	39.1%	106%	93.3%	95.7%	101%	96.2%	0	3	0	> 10 µM	–	–	–	–	–	95.8%	97.3%	100%	99.3%	95.5%	–	0
O=C(Nc1cc(Oc2cc(F)c(NC(=O)C3(C(=O)Nc4ccc(F)cc4)CC3)cc2F)ccn1)C1CC1 [altiratinib]	> 10 µM	0.25 µM	> 10 µM	113%	106%	104%	101%	99.3%	107%	103%	94.7%	35.8%	58.5%	98.5%	110%	97.1%	109%	95.5%	0	12.6	0	–	–	–	–	–	–	–	–	–	–	–	–	–
OCCn1cc(-c2ccc3c(c2)CC/C3=N\O)c(-c2ccncc2)n1 [GDC-0879]	> 10 µM	1.45 µM	> 10 µM	98.8%	89.4%	94.1%	101%	104%	90.6%	100%	87.2%	74.3%	25%	102%	94.5%	95.2%	107%	104%	0	7	0	–	–	–	–	–	–	–	–	–	–	–	–	–
C#Cc1cccc(Nc2ncnc3cc(OCCOC)c(OCCO)cc23)c1 [OSI-420]	> 10 µM	> 10 µM	0.101 µM	106%	101%	101%	86.9%	76.6%	110%	102%	100%	104%	76.7%	115%	103%	73.8%	48.6%	47%	2.3	0.6	13.1	> 10 µM	103%	105%	98.2%	79%	65.1%	96.7%	99.8%	97.6%	94.2%	85.1%	4	0.3
Cc1ccc2c(Br)cc(Br)c(OC(=O)c3ccccc3)c2n1 [broxaldine]	2.44 µM	2.53 µM	–	84.9%	100%	84.9%	93.8%	29.2%	111%	95.5%	116%	93.7%	19.6%	103%	99.8%	87.6%	97.4%	66.5%	4.9	5.4	2	2.14 µM	109%	108%	109%	98.3%	54.8%	98.2%	102%	98%	92.7%	42.4%	2.5	4.3
C[C@H](N)C(=O)N[C@@]1(C(=O)O)C[C@@H](Sc2nnc[nH]2)[C@H]2[C@H](C(=O)O)[C@H]21	> 10 µM	> 10 µM	> 10 µM	108%	100%	103%	98.9%	101%	101%	94.7%	99.6%	110%	91%	102%	92.6%	96.1%	114%	110%	0	0	0	> 10 µM	–	–	–	–	–	105%	96.9%	105%	100%	104%	–	0
C[C@](O)(COc1ccc(C#N)cc1)C(=O)Nc1ccc(C#N)c(C(F)(F)F)c1 [ostarine]	–	> 10 µM	> 10 µM	–	–	–	–	–	107%	107%	103%	109%	92.8%	109%	98.9%	99.4%	95.9%	97.9%	–	0	0	–	–	–	–	–	–	–	–	–	–	–	–	–
Cc1cc(C2CCCCC2)n(O)c(=O)c1 [ciclopirox]	1.31 µM	1.76 µM	2.52 µM	99.9%	90.1%	96%	77%	38.7%	91.8%	96.4%	95.9%	85.9%	27.2%	108%	109%	94.3%	95.7%	44.8%	6.1	6.3	3.6	–	94.6%	100%	90.1%	89.6%	63.4%	105%	95.2%	101%	87.9%	52.1%	2.7	4.4
Cc1cnc(NC(=O)Nc2cc(Br)c(C)cc2OC[C@@H]2CNCCO2)cn1	1.73 µM	0.764 µM	–	102%	94.7%	96.9%	87.5%	37.8%	106%	104%	97.9%	59.1%	33.7%	90.7%	106%	102%	76.9%	63%	5.4	8.6	4.5	1.2 µM	101%	105%	102%	97.2%	71.1%	100%	99.2%	98%	62.2%	4.8%	1.7	10.2
Cc1nc2ccc(-n3ncc(C(=O)c4cc5ccccc5[nH]4)c3N)cc2[nH]1	> 10 µM	> 10 µM	> 10 µM	100%	94.5%	92.9%	86.4%	89.3%	94.6%	99%	87.3%	104%	76.2%	100%	86.9%	98.4%	87.6%	84.7%	0.8	0.7	0.7	> 10 µM	96.5%	96%	93.6%	89.4%	69%	99%	94.5%	97.8%	84.1%	84.3%	2.2	1.9
